Key:
human orexin 1 receptors [1] = target: T1, human orexin 1 receptors (Homo sapiens (Human), UniProt O43613); assay: Radioligand Binding Assay I ([125I]orexin A competition, cell membranes); conditions: read-out: binding I hOx1R Kd
Description: (§1) Radioligand Binding Assay I
(§2) For crude cell membrane preparations, cells (CHO, Chinese hamster ovary or HEK, human embryonic kidney) expressing human orexin 1 or human orexin 2 receptors, were washed with HEPES (10 mM, pH 7.5), scraped off the culture plates with the same buffer, and centrifuged at 4° C. for 5 min at 2500×g. The cell pellet was either stored at −80° C. or used directly. Before the experiments, cell membranes were re-suspended in binding assay buffer (10 mM HEPES, 0.5% (w/v) bovine serum albumin, pH 7.5) by homogenisation with a Polytron homogeniser at 50 Hz for 20 s. Cell membranes were also used as made available by commercial providers.
(§3) In initial saturation experiments (to calculate Bmax), cell homogenates (150 μl) were incubated with 25-300 pM of the radioligand ([^125I]orexin A, 50 μl), 8 concentrations in triplicates in the presence or absence Orexin A (1 μM, 50 μl) to define non specific binding. Bound radioactivity was measured, and data were analysed with the program XLFIT or Graphpad Prism. Protein concentration was determined according to the Bradford/BioRad Protein Assay Kit.
(§4) In competition experiments, cell homogenates (150 μl) were incubated in assay buffer (10 mM HEPES, pH 7.5, 0.5% (w/v) bovine serum albumin, 5 mM MgCl2, 1 mM CaCl2, and tween 0.05%) for 1 h at room temperature with about 100 pM of the radioligand ([^125I]orexin A, 2100 Ci/mmole, 50 μl), and with various concentrations of compounds of the invention (50 μl) in triplicates; non-specific binding was determined in the presence of Orexin A (1 μM). Reactions were terminated by vacuum filtration, 3 washes of ice cold wash buffer (Tris-HCl pH 7.4/10 mM, with NaCl 154 mM).

human orexin 2 receptors [2] = target: T2, human orexin 2 receptors (Homo sapiens (Human), UniProt O43614); assay: as above; conditions: read-out: binding I hOx2R Kd
T2 sequence (O43614 whole entry): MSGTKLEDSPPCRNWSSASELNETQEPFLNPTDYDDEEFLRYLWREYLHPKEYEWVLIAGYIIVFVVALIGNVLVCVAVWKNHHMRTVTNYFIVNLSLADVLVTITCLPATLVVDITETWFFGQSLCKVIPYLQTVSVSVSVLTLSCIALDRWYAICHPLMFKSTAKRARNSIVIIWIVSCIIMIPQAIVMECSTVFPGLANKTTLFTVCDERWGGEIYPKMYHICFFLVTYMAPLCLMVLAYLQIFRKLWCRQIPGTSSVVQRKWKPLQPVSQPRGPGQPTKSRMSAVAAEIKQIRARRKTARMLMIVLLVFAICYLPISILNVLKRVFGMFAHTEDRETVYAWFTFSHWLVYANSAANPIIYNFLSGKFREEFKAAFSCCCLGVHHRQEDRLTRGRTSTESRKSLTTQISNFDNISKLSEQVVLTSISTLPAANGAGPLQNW
Description: as §1, §2, §3, §4

human orexin 1 receptors [3] = target: T1, human orexin 1 receptors; assay: Calcium Accumulation in Cells (FLIPR), antagonism of orexin A; format: cell-based; conditions: antagonism of orexin A, Cheng-Prusoff corrected; read-out: FLIPR hOx1R Ki
human orexin 2 receptors [4] = target: T2, human orexin 2 receptors; assay: as above; format: cell-based; conditions: antagonism of orexin A, Cheng-Prusoff corrected; read-out: FLIPR hOx2R Ki
How it was run: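 Antagonism was measured as block of orexin A-evoked Ca²⁺ fluorescence (FLIPR), with orexin A added one hour after test compound (usually 10^−9–10^−5 M), which was first read alone for agonist activity. Human orexin 2 receptor cells were dye-loaded with 2 μM Fluo4-AM and 0.1 mM probenecid for 1 h.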

T1 sequence (O43613 whole entry): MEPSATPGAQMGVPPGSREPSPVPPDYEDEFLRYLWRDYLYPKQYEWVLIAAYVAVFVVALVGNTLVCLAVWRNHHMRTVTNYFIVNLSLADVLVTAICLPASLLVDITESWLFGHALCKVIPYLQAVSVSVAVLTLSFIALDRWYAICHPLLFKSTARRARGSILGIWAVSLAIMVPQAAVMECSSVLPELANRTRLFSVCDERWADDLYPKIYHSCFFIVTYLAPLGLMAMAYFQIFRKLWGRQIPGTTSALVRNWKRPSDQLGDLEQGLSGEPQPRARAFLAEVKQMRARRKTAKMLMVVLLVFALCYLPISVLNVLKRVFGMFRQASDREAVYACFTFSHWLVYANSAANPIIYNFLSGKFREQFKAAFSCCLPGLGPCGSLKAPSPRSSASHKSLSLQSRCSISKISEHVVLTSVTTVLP

Row | Compound | Kd (human orexin 1 receptors [1]) | Kd (human orexin 2 receptors [2]) | Ki (human orexin 1 receptors [3]) | Ki (human orexin 2 receptors [4]) | melting point
1 | Cn1nc(-c2ccccc2)c2c(C(F)(F)F)cc(OCC(=O)N[C@H]3CCc4ccccc43)nc21 [Example 1.3, (S)—N-(2,3-dihydro-1H-inden-1-yl)-2-(1-methyl-3-phenyl-4-(trifluoromethyl)-1H-pyrazolo[3,4-b]pyridin-6-yloxy)acetamide] | 348 nM | 128 nM | 211 nM | 69 nM | 203 to 205.2 °C
2 | C[C@H](CNC(=O)COc1cc(C(F)(F)F)c2c(-c3ccccc3)nn(C)c2n1)c1ccccc1 [Example 1.5, (S)-2-(1-methyl-3-phenyl-4-(trifluoromethyl)-1H-pyrazolo[3,4-b]pyridin-6-yloxy)-N-(2-phenylpropyl)acetamide] | 1150 nM | 76 nM | 870 nM | 36 nM | 91 to 93 °C
3 | Cc1n[nH]c(C)c1[C@H](C)NC(=O)COc1cc(C(F)(F)F)c2c(-c3ccccc3)nn(C)c2n1 [Example 1.6, (S)—N-(1-(3,5-dimethyl-1H-pyrazol-4-yl)ethyl)-2-(1-methyl-3-phenyl-4-(trifluoromethyl)-1H-pyrazolo[3,4-b]pyridin-6-yloxy)acetamide] |  |  |  |  | 145 to 147 °C
4 | C[C@H](NC(=O)COc1cc(C(F)(F)F)c2c(-c3ccc(F)cc3)nn(C)c2n1)c1ccccc1 [Example 1.23, (S)-2-(3-(4-fluorophenyl)-1-methyl-4-(trifluoromethyl)-1H-pyrazolo[3,4-b]pyridin-6-yloxy)-N-(1-phenylethyl)acetamide] | 131 nM | 278 nM | 128 nM | 136 nM | 
5 | Cc1cccc(-c2nn(C)c3nc(OCC(=O)N[C@@H](C)c4ccccc4)cc(C(F)(F)F)c23)c1 [Example 1.24, (S)-2-(1-methyl-3-m-tolyl-4-(trifluoromethyl)-1H-pyrazolo[3,4-b]pyridin-6-yloxy)-N-(1-phenylethyl)acetamide] | 48 nM | 153 nM | 54 nM | 87 nM | 
6 | Cc1ccc(CNC(=O)COc2cc(C(F)(F)F)c3c(-c4ccccc4)nn(C)c3n2)cc1 [Example 1.32, 2-(1-methyl-3-phenyl-4-(trifluoromethyl)-1H-pyrazolo[3,4-b]pyridin-6-yloxy)-N-(4-methylbenzyl)acetamide] | 2600 nM | 1380 nM | 851 nM | 115 nM | 
7 | CCn1nccc1C(C)NC(=O)COc1cc(C(F)(F)F)c2c(-c3ccccc3)nn(C)c2n1 (stereo not shown) [Example 1.39, N-(1-(1-ethyl-1H-pyrazol-5-yl)ethyl)-2-(1-methyl-3-phenyl-4-(trifluoromethyl)-1H-pyrazolo[3,4-b]pyridin-6-yloxy)acetamide] | 330 nM | 1130 nM | 222 nM | 353 nM | 
8 | COc1ccc(CNC(=O)COc2cc(C(F)(F)F)c3c(-c4ccccc4)nn(C)c3n2)cc1 [Example 1.41, N-(4-methoxybenzyl)-2-(1-methyl-3-phenyl-4-(trifluoromethyl)-1H-pyrazolo[3,4-b]pyridin-6-yloxy)acetamide] | 1240 nM | 410 nM | 800 nM | 83 nM | 
9 | COc1ccc(C(C)NC(=O)COc2cc(C(F)(F)F)c3c(-c4ccccc4)nn(C)c3n2)cc1 (stereo not shown) [Example 1.45, N-(1-(4-methoxyphenyl)ethyl)-2-(1-methyl-3-phenyl-4-(trifluoromethyl)-1H-pyrazolo[3,4-b]pyridin-6-yloxy)acetamide] | 32 nM | 7 nM | 29 nM | 2 nM | 
10 | COc1cccc(C(C)NC(=O)COc2cc(C(F)(F)F)c3c(-c4ccccc4)nn(C)c3n2)c1 (stereo not shown) [Example 1.46, N-(1-(3-methoxyphenyl)ethyl)-2-(1-methyl-3-phenyl-4-(trifluoromethyl)-1H-pyrazolo[3,4-b]pyridin-6-yloxy)acetamide] | 42 nM | 101 nM | 20 nM | 26 nM | 
11 | Cc1ccc(-c2nn(C)c3nc(OCC(=O)N[C@@H](C)c4ccccc4)cc(C(F)(F)F)c23)cc1 [Example 1.48, (S)-2-(1-methyl-3-p-tolyl-4-(trifluoromethyl)-1H-pyrazolo[3,4-b]pyridin-6-yloxy)-N-(1-phenylethyl)acetamide] | 490 nM | 212 nM | 178 nM | 75 nM | 
12 | COc1ccccc1-c1nn(C)c2nc(OCC(=O)N[C@@H](C)c3ccccc3)cc(C(F)(F)F)c12 [Example 1.49, (S)-2-(3-(2-methoxyphenyl)-1-methyl-4-(trifluoromethyl)-1H-pyrazolo[3,4-b]pyridin-6-yloxy)-N-(1-phenylethyl)acetamide] | 6 nM | 715 nM | 15 nM | 243 nM | 
13 | C[C@H](NC(=O)COc1cc(C(F)(F)F)c2c(-c3cccc(Br)c3)nn(C)c2n1)c1ccccc1 [Example 1.58, (S)-2-(3-(3-bromophenyl)-1-methyl-4-(trifluoromethyl)-1H-pyrazolo[3,4-b]pyridin-6-yloxy)-N-(1-phenylethyl)acetamide] | 170 nM | 436 nM | 77 nM | 201 nM | 
14 | Cn1nc(-c2ccccc2F)c2c(C(F)(F)F)cc(OCC(=O)N[C@H]3CCc4ccccc43)nc21 [Example 1.60, (S)-N-(2,3-dihydro-1H-inden-1-yl)-2-(3-(2-fluorophenyl)-1-methyl-4-(trifluoromethyl)-1H-pyrazolo[3,4-b]pyridin-6-yloxy)acetamide] | 418 nM | 144 nM | 236 nM | 36 nM | 
15 | Cn1nc(-c2cccc(F)c2)c2c(C(F)(F)F)cc(OCC(=O)N[C@H]3CCc4ccccc43)nc21 [Example 1.61, (S)-N-(2,3-dihydro-1H-inden-1-yl)-2-(3-(3-fluorophenyl)-1-methyl-4-(trifluoromethyl)-1H-pyrazolo[3,4-b]pyridin-6-yloxy)acetamide] | 204 nM | 89 nM | 117 nM | 33 nM | 
16 | COc1ccc(C(C)NC(=O)COc2cc(C(F)(F)F)c3c(-c4ccccc4)nn(C)c3n2)cn1 (stereo not shown) [Example 1.67, N-(1-(6-methoxypyridin-3-yl)ethyl)-2-(1-methyl-3-phenyl-4-(trifluoromethyl)-1H-pyrazolo[3,4-b]pyridin-6-yloxy)acetamide] | 46 nM | 20 nM | 27 nM | 2 nM | 
17 | Cc1nn(C)c(C)c1C(C)NC(=O)COc1cc(C(F)(F)F)c2c(-c3ccccc3)nn(C)c2n1 (stereo not shown) [Example 1.70, 2-(1-methyl-3-phenyl-4-(trifluoromethyl)-1H-pyrazolo[3,4-b]pyridin-6-yloxy)-N-(1-(1,3,5-trimethyl-1H-pyrazol-4-yl)ethyl)acetamide] | 26 nM | 50 nM | 8 nM | 10 nM | 
18 | COc1ccc([C@H](C)NC(=O)COc2cc(C)c3c(C4CC4)nn(C)c3n2)cc1 [Example 1.71, (S)-2-(3-cyclopropyl-1,4-dimethyl-1H-pyrazolo[3,4-b]pyridin-6-yloxy)-N-(1-(4-methoxyphenyl)ethyl)acetamide] | 105 nM | 63 nM | 145 nM | 88 nM | 
19 | Cc1ccc(C(C)NC(=O)COc2cc(C(F)(F)F)c3c(-c4ccccc4)nn(C)c3n2)cn1 (stereo not shown) [Example 1.77, 2-(1-methyl-3-phenyl-4-(trifluoromethyl)-1H-pyrazolo[3,4-b]pyridin-6-yloxy)-N-(1-(6-methylpyridin-3-yl)ethyl)acetamide] | 161 nM | 87 nM | 74 nM | 21 nM | 
20 | C[C@H](NC(=O)COc1ccc2c(-c3ccccc3)nn(C)c2n1)c1ccccc1 [Example 2.1, (S)-2-(1-methyl-3-phenyl-1H-pyrazolo[3,4-b]pyridin-6-yloxy)-N-(1-phenylethyl)acetamide] |  |  | 492 nM | 865 nM | 55 to 56 °C
21 | C[C@H](NC(=O)COc1cc(C(F)(F)F)c2c(-c3ccccc3)cn(C)c2n1)c1ccccc1 [Example 6.77, (S)-2-(1-methyl-3-phenyl-4-(trifluoromethyl)-1H-pyrrolo[2,3-b]pyridin-6-yloxy)-N-(1-phenylethyl)acetamide] | 501 nM | 240 nM | 148 nM | 59 nM | 

— US8742106B2 (Novartis AG, priority 2009, dated 2014)
